Laboratory results: PMC6106730, “The hemicellulose-degrading enzyme system of the thermophilic bacterium Clostridium stercorarium: comparative characterisation and addition of new hemicellulolytic glycoside hydrolases” (Biotechnology for Biofuels, 2018)

What was measured:
Xyn10D = target: T1, Xyn10D (Thermoclostridium stercorarium, UniProt L7VM99); experiment: HPAEC-PAD of hydrolysis products; type: biochemical; settings: 20 mg/L oligosaccharide, 2 mg/L enzyme, overnight, 60 °C, pH 6.5
T1 construct: gene Cst_c07550; no signal peptide predicted; C-terminal His6 tag, pET-24c(+), E. coli BL21 Star; IMAC and heat step

Xyn105F = target: T2, Xyn105F (Thermoclostridium stercorarium, UniProt L7VMZ8); experiment: HPAEC-PAD of hydrolysis products; type: biochemical; settings: 20 mg/L oligosaccharide, 2 mg/L enzyme, overnight, 60 °C, pH 6.5
T2 construct: gene Cst_c10410; no signal peptide predicted; C-terminal His6 tag, pET-24c(+), E. coli BL21 Star; IMAC and heat step
T2 sequence (L7VMZ8 entry or part of it): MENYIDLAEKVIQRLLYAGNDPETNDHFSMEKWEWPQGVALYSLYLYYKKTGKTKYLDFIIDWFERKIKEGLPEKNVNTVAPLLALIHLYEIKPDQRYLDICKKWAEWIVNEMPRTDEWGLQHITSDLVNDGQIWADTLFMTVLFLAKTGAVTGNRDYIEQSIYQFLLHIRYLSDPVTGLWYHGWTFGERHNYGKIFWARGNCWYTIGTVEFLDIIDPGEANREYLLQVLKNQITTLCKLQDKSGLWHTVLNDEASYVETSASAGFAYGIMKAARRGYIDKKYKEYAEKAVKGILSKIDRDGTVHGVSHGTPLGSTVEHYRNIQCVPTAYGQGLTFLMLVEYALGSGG

T1 sequence (L7VM99 entry or part of it): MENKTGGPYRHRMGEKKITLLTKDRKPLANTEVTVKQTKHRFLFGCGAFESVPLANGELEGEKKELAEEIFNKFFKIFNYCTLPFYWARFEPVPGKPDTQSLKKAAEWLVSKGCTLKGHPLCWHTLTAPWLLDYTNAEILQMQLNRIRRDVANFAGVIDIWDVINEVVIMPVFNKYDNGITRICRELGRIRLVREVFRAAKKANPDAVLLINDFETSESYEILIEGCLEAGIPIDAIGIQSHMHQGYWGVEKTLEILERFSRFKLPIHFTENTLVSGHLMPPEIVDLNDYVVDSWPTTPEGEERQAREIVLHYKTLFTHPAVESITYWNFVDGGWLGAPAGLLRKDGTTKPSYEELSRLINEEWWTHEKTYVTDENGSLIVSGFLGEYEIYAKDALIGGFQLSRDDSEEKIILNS

SMILES: OC1OC[C@@H](O[C@@H]2OC[C@@H](O[C@@H]3OC[C@@H](O[C@@H]4OC[C@@H](O[C@@H]5OC[C@@H](O)[C@H](O)[C@H]5O)[C@H](O)[C@H]4O)[C@H](O)[C@H]3O)[C@H](O)[C@H]2O)[C@H](O)[C@H]1O (some centres unmarked) [X5, xylopentaose]
- HPAEC-PAD of hydrolysis products (Xyn10D): All five xylanases degraded xylopentaose first to xylotriose and xylobiose
- HPAEC-PAD of hydrolysis products (Xyn105F): Xyn105F was also active on xylopentaose, releasing xylose and xylobiose
